Legend:
Hepatitis C virus [1] = test: Antiviral activity against Hepatitis C virus infected in Huh-7 cells assessed as inhibition of HCV replicon at 10 uM by replicon assay; type: functional, Hepacivirus hominis
[2] = Binding affinity to Hepatitis C virus genotype 1b IRES RNA subdomain 2a assessed as conformational change by cyanine dye-based FRET assay; design: species or system Hepatitis C virus subtype 1b
[3] = system: Internal ribosome entry site (IRES); test: Inhibition of Hepatitis C virus IRES RNA-driven translation; conditions: Hepacivirus hominis
Hepatitis C virus [4] = test: Antiviral activity against Hepatitis C virus infected in Huh-7 cells assessed as inhibition of HCV replicon by replicon assay; type: functional, organism-based, Hepacivirus hominis
[5] = system: Internal ribosome entry site (IRES); test: Binding affinity to Hepatitis C virus IRES RNA subdomain 2a by mass spectrometry assay; design: species or system Hepacivirus hominis

Structure (SMILES) | EC50 [2] | IC50 [3] | EC50 (Hepatitis C virus [4]) | inhibition at 10 µM (Hepatitis C virus [1]) | Kd [5]
CC(=O)c1ccc(C(=O)N[C@@H](CCCCN)C(=O)N2C[C@H](N)C[C@H](N)C2)cc1 | 6.3 µM | – | – | 75% | –
Cc1cc2nc3ccc(N(C)C)cc3nc2cc1N | – | 0.08 µM | – | – | –
Cc1cc(C)nc(/N=C(\N)NCCc2ccccc2)n1 | – | 9.6 µM | – | – | –

Continued, in another order:

EC50 [2] | IC50 [3] | EC50 (Hepatitis C virus [4]) | Structure (SMILES) | inhibition at 10 µM (Hepatitis C virus [1]) | Kd [5]
0.6 µM | – | 4 µM | CN(C)CC1COc2ccc3nc4n(c3c2C1)CC(CN(C)C)CN4 (stereo unspecified) | – | –
50 µM | – | – | CN(C)CCCn1c(N)nc2ccccc21 | – | 100 µM
3.4 µM | – | 2.8 µM | CN(C)CCCn1c(N)nc2ccc3c(c21)CC(CN(C)C)CO3 (stereo unspecified) | – | 0.86 µM

Reference: ChEMBL document CHEMBL3124830, “Hepatitis C virus translation inhibitors targeting the internal ribosomal entry site” (J Med Chem, 2014)
